Results from patent publication US8475851B2, “Preparations with wood extracts of locust trees” (Symrise AG, priority 2011, dated 2013).

Test system: 3T3-L1 cells
Test: Adipogenesis assay
Format: cell-based, mouse
Details: for Adipogenesis inhibition, result in words: concentration tested
Description: 3T3-L1 cells (mouse embryonic fibroblast-like adipocyte cell line) are seeded in a 48-well plate with collagen I coating at a concentration of 3×10^4 cells/well. After culture for 72 h at 37° C. and 5% CO2 in DMEM (Dulbecco's Modified Eagle's Medium), enriched with 10% calf serum, various concentrations of the test samples are added to DMEM, enriched with 10% fetal calf serum supplemented with 1 μg/ml insulin, 0.25 μM dexamethasone and 0.5 mM IBMX (3-isobutyl-1-methylxanthine), and incubated for a further 48 h. The medium is changed, applying DMEM, enriched with 10% fetal calf serum supplemented with 1 μg/ml insulin. After further cultivation for 48 h, the medium is changed again, applying DMEM enriched with 10% fetal calf serum.
After incubation for a further 72 h, the intracellularly stored lipids are quantified as a measure for the differentiation of the cells, by measuring the fluorescence after staining the lipids with the fluorescent dye Nile Red.
The inhibition of adipogenesis in the presence of the test samples is calculated from the following equation:
[formula] with RFU test substance=relative fluorescence units of the wells with test substance and with cells RFU control=relative fluorescence units of the wells without test substance, but with cells RFU control without cells=relative fluorescence units of the wells without test substance and without cells.
IC50 is calculated from the adipogenesis inhibition [%] in a series of dilutions of samples tested. This is the concentration at which adipogenesis is inhibited 50%.

| Compound | Adipogenesis inhibition, result in words | Adipogenesis inhibition (test concentration 0.0003 % (corresponds to content 1.0 wt. % in BIO781/2)) | Adipogenesis inhibition (test concentration 0.0005 % (corresponds to content 1.5 wt. % in BIO781/2)) |
| --- | --- | --- | --- |
| O=c1c(O)c(-c2ccc(O)c(O)c2)oc2cc(O)ccc12 [Fisetin, 3,3′,4′,7-tetrahydroxyflavone] | do not show any activity | No inhibition | – |
| O=C1c2ccc(O)cc2OC(c2ccc(O)c(O)c2)C1O (stereo not shown) [Fustin, 3,3′,4′,7-tetrahydroxyflavanone] | do not show any activity | – | No inhibition |
